Data as given in PubChem BioAssay AID743494 (The Scripps Research Institute Molecular Screening Center, 2014).
Activity calls are given as the source filed them. No rule for the calls is given here.

Test system: Ga16 counterscreen cells, calcium fluorescence antagonism
Assay: nonselective Ga16 antagonists, potency, SAR follow-up, counter-screen for TAAR1 agonist project, cell-based, fluorescence, dose response, MedChem round 1 (AID 743494)

Compound | IC50
O=C(CCN1CCC(O)(c2ccccc2)C1)c1ccc2c(c1)OCCO2 (stereo unspecified) | > 29.9 µM (inactive)
O=C(CCN1C[C@@H](C(=O)O)[C@H](c2ccccc2)C1)NC1CCCC1 | > 29.9 µM (inactive)
NC(=O)CCN1C[C@H](c2ccccc2)[C@@H]2[C@H]1C1CCN2CC1 | > 29.9 µM (inactive)
O=C(CCN1C[C@@H](C(=O)O)[C@H](c2ccccc2)C1)NCc1cccs1 | > 29.9 µM (inactive)
CC1CN(CCC(=O)c2ccc3c(c2)OCCO3)CC1c1ccccc1 (stereo unspecified) | > 29.9 µM (inactive)
Cc1ccc(C(=O)CCN2CCC(c3ccccc3)C2)cc1 (stereo unspecified) | > 29.9 µM (inactive)
O=C(CCN1CCC(c2ccccc2)C1)c1ccccc1 (stereo unspecified) | > 29.9 µM (inactive)
CC(CN1CCC(c2ccccc2)C1)C(=O)c1ccc2c(c1)OCCO2 (stereo unspecified) | > 29.9 µM (inactive)
CC(CN1CCCC1Cc1ccccc1)C(=O)c1ccc2c(c1)OCCO2 (stereo unspecified) | > 29.9 µM (inactive)
O=C(CCN1CCC(O)(c2ccc(F)cc2)C1)c1ccc2c(c1)OCCO2 (stereo unspecified) | > 29.9 µM (inactive)
O=C(CCN1C[C@@H](C(=O)O)[C@H](c2cccc(F)c2)C1)NC1CC1 | > 29.9 µM (inactive)
